Results on 17 compounds are retold here after patent US11753407B2, “Compounds for treating spinal muscular atrophy” (PTC Therapeutics, Inc., priority 2012, dated 2023).

Data set [1] has as its system SMN2 minigene mRNA (SMN2-A minigene) in HEK293H cells. Put plainly: SMN2 minigene mRNA splicing RT-qPCR assay in cultured cells. The class given is cell-based, human. The conditions noted are these: Homo sapiens, HEK293-H; concentration increasing full length SMN2 mRNA 1.5-fold relative to vehicle-treated cells; HEK293H cells with SMN2-A minigene, 24 hours, 7-point concentration data; read-out: EC1.5x for production of full length SMN2 mRNA. Summed up: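 Read-out: minigene-specific full-length (exon 7-included) SMN2 mRNA by one-step multiplex RT-qPCR, normalized to GAPDH and divided by vehicle-treated level. Stable SMN2-A minigene HEK293H cells, 24 h compound exposure, 7 concentrations in duplicate. EC1.5× = concentration raising FL mRNA 1.5-fold.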
(In general: Quantitative PCR measures a nucleic acid by following its amplification.)

For data set [2], the system named is Smn protein in SMA patient fibroblast cells (GM03813). Put plainly: Smn protein assay in cultured cells (SMN HTRF). As to conditions: SMA patient fibroblast cells, 48 hours; for EC1.5x for Smn protein expression: 7-point concentration curve, SMN HTRF, concentration producing 1.5 times Smn protein vs DMSO vehicle control; for maximum fold (Fold) increase of Smn protein: 7-point concentration data, fold relative to vehicle control. The class given is cell-based, human. Summed up: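 Read-out: HTRF 665/620 nm ratio, blank-subtracted as ΔF, then expressed as fold over DMSO vehicle. Fibroblasts from SMA patients were exposed to compounds for 48 h (7 points, 3.16-fold steps, triplicates). Values are EC1.5× and maximum fold Smn increase.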
(In general: In TR-FRET formats the signal depends on donor and acceptor labels being close together.)

Structures are written as SMILES.

As a reminder, the melting point is the temperature, or range, at which the solid turns liquid. On to `Cc1cn2nc(-c3cc(=O)n4cc(N5CCN6CCC[C@H]6C5)ccc4n3)cc2c(C)n1` [Compound 336, 2-(4,6-dimethylpyrazolo[1,5-a]pyrazin-2-yl)-7-[(8aS)-hexahydropyrrolo[1,2-a]pyrazin-2(1H)-yl]-4H-pyrido[1,2-a]pyrimidin-4-one], for which the melting point lay within 215 to 218 °C. Besides, in data set [1], the EC (1.5-fold increase) lay in the range of 0.1 to 0.3 µM. In addition, in data set [2], the “EC1.5x for Smn protein expression” value is given as “**** (an EC1.5x≤0.3 μM is indicated by four stars (****))” and the “maximum fold (Fold) increase of Smn protein” value (“maximum fold (Fold) increase” for short) is listed as “***** (a fold increase >1.65 is indicated by five stars (*****))”.

Consider `COc1ccc(-c2cc(=O)n3cc(C4=CCN(C)CC4)cc(C)c3n2)cc1F` [Compound 315, 2-(3-fluoro-4-methoxyphenyl)-9-methyl-7-(1-methyl-1,2,3,6-tetrahydropyridin-4-yl)-4H-pyrido[1,2-a]pyrimidin-4-one], for which the melting point was 184 to 190 °C. For the same compound, the EC (1.5-fold increase) in data set [1] is under 0.1 µM. Also, in data set [2], the “maximum fold (Fold) increase” value was “*** (a fold increase between >1.35 and ≤1.5 is indicated by three stars (***))”.

As to `CCc1nc(C)cn2nc(-c3cc(=O)n4cc(N5CCNCC5)ccc4n3)cc12` [Compound 546, 2-(4-ethyl-6-methylpyrazolo[1,5-a]pyrazin-2-yl)-7-(piperazin-1-yl)-4H-pyrido[1,2-a]pyrimidin-4-one], the melting point lay within 230 to 233 °C. Besides, the EC (1.5-fold increase) in data set [1] is under 0.1 µM. Besides, in data set [2], the “EC1.5x for Smn protein expression” value is reported as “**** (an EC1.5x≤0.3 μM is indicated by four stars (****))” and the “maximum fold (Fold) increase” value is reported as “***** (a fold increase >1.65 is indicated by five stars (*****))”.

Compound `CN1CCC(c2ccc3nc(-c4ccc5c(cnn5C)c4)cc(=O)n3c2)CC1` [Compound 475, 2-(1-methyl-1H-indazol-5-yl)-7-(1-methylpiperidin-4-yl)-4H-pyrido[1,2-a]pyrimidin-4-one] registered a melting point of 216 to 218 °C. In addition, the EC (1.5-fold increase) in data set [1] was in the range of 0.3 to 1 µM. Also, in data set [2], the “EC1.5x for Smn protein expression” value is “** (an EC1.5× between >1 μM and ≤3 μM is indicated by two stars (**))”; the “maximum fold (Fold) increase” value is “*** (a fold increase between >1.35 and ≤1.5 is indicated by three stars (***))”.

In turn, `CCN1CCC(c2ccc3nc(-c4ccc5nc(C)oc5c4)cc(=O)n3n2)CC1` [Compound 501, 7-(1-ethylpiperidin-4-yl)-2-(2-methyl-1,3-benzoxazol-6-yl)-4H-pyrimido[1,2-b]pyridazin-4-one] gave a melting point of 284 to 286 °C. In data set [1], the EC (1.5-fold increase) lay within 0.1 to 0.3 µM. Further, in data set [2], the “EC1.5x for Smn protein expression” value was “*** (an EC1.5× between >0.3 μM and ≤1 μM is indicated by three stars (***))”; the “maximum fold (Fold) increase” value was “***** (a fold increase >1.65 is indicated by five stars (*****))”.

In turn, `Cc1cn2nc(-c3cc(=O)n4cc(N5C[C@@H]6C[C@H]5CN6)ccc4n3)cc2c(C)n1` [Compound 399, 7-[(1S,4S)-2,5-diazabicyclo[2.2.1]hept-2-yl]-2-(4,6-dimethylpyrazolo[1,5-a]pyrazin-2-yl)-4H-pyrido[1,2-a]pyrimidin-4-one] returned a melting point of 218 to 221 °C. In addition, the EC (1.5-fold increase) in data set [1] is 0.3 to 1 µM. In data set [2], the “EC1.5x for Smn protein expression” value was “*** (an EC1.5× between >0.3 μM and ≤1 μM is indicated by three stars (***))”; the “maximum fold (Fold) increase” value was “**** (a fold increase between >1.5 and ≤1.65 is indicated by four stars (****))”.

`CCOc1ccc(-c2cc(=O)n3cc(N4CCNCC4)ccc3n2)cc1F` [Cpd 153, 2-(4-ethoxy-3-fluorophenyl)-7-(piperazin-1-yl)-4H-pyrido[1,2-a]pyrimidin-4-one] returned a melting point of 180 to 186 °C. The EC (1.5-fold increase) in data set [1] lay in the range of 0.3 to 1 µM. The “maximum fold (Fold) increase” value in data set [2] is “** (a fold increase between >1.2 and ≤1.35 is indicated by two stars (**))”.

`COCCN1CCN(c2ccc3nc(-c4cc(F)c5nc(C)cn5c4)cc(=O)n3c2)CC1` [Compound 385, 2-(8-fluoro-2-methylimidazo[1,2-a]pyridin-6-yl)-7-[4-(2-methoxyethyl)piperazin-1-yl]-4H-pyrido[1,2-a]pyrimidin-4-one] registered a melting point of 258 to 262 °C. Further, the EC (1.5-fold increase) in data set [1] is under 0.1 µM. In addition, in data set [2], the “EC1.5x for Smn protein expression” value is “*** (an EC1.5× between >0.3 μM and ≤1 μM is indicated by three stars (***))”; the “maximum fold (Fold) increase” value is listed as “***** (a fold increase >1.65 is indicated by five stars (*****))”.

Take `CCc1nc(C)cn2nc(-c3cc(=O)n4cc(C5CCN(C(CO)CO)CC5)ccc4n3)cc12` [Cpd 694, 7-[1-(1,3-dihydroxypropan-2-yl)piperidin-4-yl]-2-(4-ethyl-6-methylpyrazolo[1,5-a]pyrazin-2-yl)-4H-pyrido[1,2-a]pyrimidin-4-one]: the melting point lay within 228 to 230 °C. In data set [1], the EC (1.5-fold increase) is under 0.1 µM. Further, in data set [2], the “EC1.5x for Smn protein expression” value is recorded as “**** (an EC1.5x≤0.3 μM is indicated by four stars (****))” and the “maximum fold (Fold) increase” value is reported as “***** (a fold increase >1.65 is indicated by five stars (*****))”.

With `COc1ccc(-c2cc(=O)n3cc(N4CCNCC4)ccc3n2)cc1OC(F)(F)F` [Cpd 81, 2-[4-methoxy-3-(trifluoromethoxy)phenyl]-7-(piperazin-1-yl)-4H-pyrido[1,2-a]pyrimidin-4-one], the melting point lay in the range of 158 to 162 °C. Further, the EC (1.5-fold increase) in data set [1] fell in the range of 0.3 to 1 µM. In addition, in data set [2], the “maximum fold (Fold) increase” value is “** (a fold increase between >1.2 and ≤1.35 is indicated by two stars (**))”.

In turn, `COc1ccc(-c2cc(=O)n3cc(N4C[C@@H](C)N[C@@H](C)C4)ccc3n2)cc1` [Compound 4, 7-[(3R,5S)-3,5-dimethylpiperazin-1-yl]-2-(4-methoxyphenyl)-4H-pyrido[1,2-a]pyrimidin-4-one] registered a melting point of 185 to 187 °C. Also, in data set [1], the EC (1.5-fold increase) lay within 1 to 3 µM. Besides, the “maximum fold (Fold) increase” value in data set [2] is recorded as “* (A maximum fold increase of ≤1.2 is indicated by one star (*))”.

`Cc1cc(N2CCNCC2)cn2c(=O)cc(-c3ccc4nn(C)cc4c3)nc12` [Compound 754, 9-methyl-2-(2-methyl-2H-indazol-5-yl)-7-(piperazin-1-yl)-4H-pyrido[1,2-a]pyrimidin-4-one]: the melting point fell in the range of 233 to 243 °C. In addition, the EC (1.5-fold increase) in data set [1] was under 0.1 µM. Also, in data set [2], the “EC1.5x for Smn protein expression” value is recorded as “**** (an EC1.5x≤0.3 μM is indicated by four stars (****))” and the “maximum fold (Fold) increase” value is given as “***** (a fold increase >1.65 is indicated by five stars (*****))”.

For `Cc1cn2cc(-c3cc(=O)n4cc(N5CCN(C)CC5)ccc4n3)cc(CO)c2n1` [Compound 677, 2-[8-(hydroxymethyl)-2-methylimidazo[1,2-a]pyridin-6-yl]-7-(4-methylpiperazin-1-yl)-4H-pyrido[1,2-a]pyrimidin-4-one], the melting point is 262 to 266 °C. Also, the EC (1.5-fold increase) in data set [1] is under 0.1 µM. In data set [2], the “EC1.5x for Smn protein expression” value is “*** (an EC1.5× between >0.3 μM and ≤1 μM is indicated by three stars (***))”; the “maximum fold (Fold) increase” value was “***** (a fold increase >1.65 is indicated by five stars (*****))”.

Compound `Cc1cn2nc(-c3cc(=O)n4cc(N5CCC(N(C)C)CC5)cc(C)c4n3)cc2c(C)n1` [Compound 459, 7-[4-(dimethylamino)piperidin-1-yl]-2-(4,6-dimethylpyrazolo[1,5-a]pyrazin-2-yl)-9-methyl-4H-pyrido[1,2-a]pyrimidin-4-one] had a melting point of 231 to 241 °C. Further, the EC (1.5-fold increase) in data set [1] is under 0.1 µM. In addition, the “maximum fold (Fold) increase” value in data set [2] is “*** (a fold increase between >1.35 and ≤1.5 is indicated by three stars (***))”.

Compound `C[C@@H]1CN(c2ccc3nc(-c4ccc5c(c4)OCCO5)cc(=O)n3c2)C[C@H](C)N1` [Compound 37, 2-(2,3-dihydro-1,4-benzodioxin-6-yl)-7-[(3R,5S)-3,5-dimethylpiperazin-1-yl]-4H-pyrido[1,2-a]pyrimidin-4-one] gave a melting point of 247 to 250 °C. In addition, the EC (1.5-fold increase) in data set [1] fell in the range of 1 to 3 µM. In addition, the “maximum fold (Fold) increase” value in data set [2] is recorded as “* (A maximum fold increase of ≤1.2 is indicated by one star (*))”.

In turn, `COc1ccc(-c2cc(=O)n3cc(C4CCNCC4)cc(C)c3n2)cc1OC` [Compound 250, 2-(3,4-dimethoxyphenyl)-9-methyl-7-(piperidin-4-yl)-4H-pyrido[1,2-a]pyrimidin-4-one] registered a melting point of 176 to 181 °C. The EC (1.5-fold increase) in data set [1] is under 0.1 µM. Besides, in data set [2], the “EC1.5x for Smn protein expression” value is given as “**** (an EC1.5x≤0.3 μM is indicated by four stars (****))” and the “maximum fold (Fold) increase” value is given as “***** (a fold increase >1.65 is indicated by five stars (*****))”.

For `Cc1cn2nc(-c3cc(=O)n4cc(OC5CCN(C)CC5)ccc4n3)cc2c(C)n1` [Compound 722, 2-(4,6-dimethylpyrazolo[1,5-a]pyrazin-2-yl)-7-[(1-methylpiperidin-4-yl)oxy]-4H-pyrido[1,2-a]pyrimidin-4-one], the melting point lay within 249 to 252 °C. Also, in data set [1], the EC (1.5-fold increase) was under 0.1 µM. Also, in data set [2], the “EC1.5x for Smn protein expression” value was “**** (an EC1.5x≤0.3 μM is indicated by four stars (****))” and the “maximum fold (Fold) increase” value was “***** (a fold increase >1.65 is indicated by five stars (*****))”.
